According to patent US20090143279A1 (priority 2007, published 2009):
Read-outs that look alike come from different tables or passages of the source.

What was measured:
mtOXPHOS transcripts = assay type: cell-based, mouse; settings: Conc 20 μM; for mitoOX (composite Z-score): normalized score vs mock-treated (DMSO) wells
nuOXPHOS transcripts = assay type: cell-based, mouse; settings: Conc 20 μM; for nucOX (composite Z-score): normalized score vs mock-treated (DMSO) wells
[1] = test system: cellular dehydrogenase activity; settings: Conc 20 μM; for MTT (composite Z-score): normalized score vs mock-treated (DMSO) wells
[2] = test system: mitochondrial membrane potential; assay type: cell-based, mouse; settings: Conc 20 μM; for ΔΨm (composite Z-score): normalized score vs mock-treated (DMSO) wells
OXPHOS gene expression = assay type: cell-based, mouse; settings: Conc 20 μM; for GE-HTS (composite Z-score): normalized score vs mock-treated (DMSO) wells
C2C12 myotubes = settings: Conc 20 μM; for Viability (composite Z-score): normalized score vs mock-treated (DMSO) wells
cytochrome c = assay type: cell-based, mouse; settings: for cyt c (composite Z-score): normalized score vs mock-treated (DMSO) wells
reactive oxygen species = assay type: cell-based, mouse; settings: Conc 20 μM; for ROS (composite Z-score): normalized score vs mock-treated (DMSO) wells
[3] = composite Z-score vs DMSO, Conc 20 μM
[4] = composite Z-score vs mock-treated (DMSO) wells
[5] = composite Z-score vs mock-treated (DMSO) wells, Conc 20 μM
[6] = normalized composite Z-score vs mock-treated (DMSO) wells
[7] = normalized composite Z-score vs mock-treated (DMSO) wells, Conc 20 μM
[8] = composite Z-score vs DMSO wells
[9] = composite Z-score vs DMSO wells, Conc 20 μM

SMILES: CC1(C)O[C@H]2CC(=O)OC[C@]23[C@H]2CC[C@@]4(C)[C@H](c5ccoc5)OC(=O)[C@H]5O[C@]54[C@]2(C)C(=O)C[C@@H]13 [limonin]
- mitoOX (mtOXPHOS transcripts; composite Z-score vs DMSO): 0.127
- nucOX (nuOXPHOS transcripts; composite Z-score vs DMSO): −0.317
- MTT ([1]; composite Z-score vs DMSO): −1.564
- ΔΨm ([2]; composite Z-score vs DMSO): −0.668
- GE-HTS (OXPHOS gene expression; composite Z-score vs DMSO): −0.197
- Viability (C2C12 myotubes; composite Z-score vs DMSO): −0.818
- cyt c (cytochrome c; [3]): 0.042
- ROS (reactive oxygen species; composite Z-score vs DMSO): 1.165

SMILES: CC(=O)Oc1cc(-c2coc3cc(OC(C)=O)c(OC(C)=O)c(OC(C)=O)c3c2=O)cc(OC(C)=O)c1OC(C)=O [iriginol hexaaceatate]
- mitoOX (mtOXPHOS transcripts; [4]): 0.938
- nucOX (nuOXPHOS transcripts; [4]): 0.859
- MTT [1, 4]: −0.565
- ΔΨm [2, 4]: −0.204
- GE-HTS (OXPHOS gene expression; [4]): 0.928
- Viability (C2C12 myotubes; [4]): −0.291
- cyt c (cytochrome c; [5]): −0.315
- ROS (reactive oxygen species; [4]): 0.815

SMILES: COc1cc(OC)c2c(c1)O[C@H](c1ccc(OC)c(OC)c1)[C@@H](O)C2 [catechin tetramethylether]
- mitoOX (mtOXPHOS transcripts; [6]): −0.798
- nucOX (nuOXPHOS transcripts; [6]): −1.106
- MTT [1, 6]: −0.573
- ΔΨm [2, 6]: −0.172
- GE-HTS (OXPHOS gene expression; [6]): −1.052
- Viability (C2C12 myotubes; [6]): 0.435
- cyt c (cytochrome c; [7]): 0.586
- ROS (reactive oxygen species; [6]): −0.094

SMILES: CCC(C)C(=O)O[C@@H]1C[C@@]2(C)[C@H](c3ccoc3)OC(=O)CC23OC2(C)OC34[C@H](OC(=O)C(C)C)[C@@]3(O)[C@@H](OC(=O)C5(C)OC5C)[C@@]5(C)C[C@]3(O)[C@@](C)([C@H]5CC(=O)OC)C14O2 (stereo partly drawn) [entandrophragmin]
- mitoOX (mtOXPHOS transcripts; [4]): 1.061
- nucOX (nuOXPHOS transcripts; [4]): 0.149
- MTT [1, 4]: −0.737
- ΔΨm [2, 4]: 0.113
- GE-HTS (OXPHOS gene expression; [4]): 0.467
- Viability (C2C12 myotubes; [4]): 0.672
- cyt c (cytochrome c; [5]): −0.703
- ROS (reactive oxygen species; [4]): 1.351

SMILES: CCCC(=O)Nc1ccc(OCC(O)CNC(C)C)c(C(C)=O)c1 (stereo not drawn) [acebutolol]
- mitoOX (mtOXPHOS transcripts; [8]): −0.254
- nucOX (nuOXPHOS transcripts; [8]): −0.591
- MTT [1, 8]: −0.548
- ΔΨm [2, 8]: 0.016
- GE-HTS (OXPHOS gene expression; [8]): −0.511
- Viability (C2C12 myotubes; [8]): −0.271
- cyt c (cytochrome c): −0.884
- cyt c (cytochrome c; [9]): 0.214
- ROS (reactive oxygen species; [8]): 1.061

SMILES: O=C(O)c1cc(O)c2c(c1)C(=O)c1cc(O)cc(O)c1C2=O [emodic acid]
- mitoOX (composite Z-score) (mtOXPHOS transcripts): −1.286
- nucOX (composite Z-score) (nuOXPHOS transcripts): −1.210
- MTT (composite Z-score) [1]: −0.976
- ΔΨm (composite Z-score) [2]: −0.966
- GE-HTS (composite Z-score) (OXPHOS gene expression): −1.336
- Viability (composite Z-score) (C2C12 myotubes): 0.262
- cyt c (composite Z-score) (cytochrome c; Conc 20 μM): 0.505
- ROS (composite Z-score) (reactive oxygen species): 1.403

SMILES: CC1CCC23CCC4(C)C5(C)CCC6C(C)(C)C(=O)CCC6(C)C5CCC4(OC2=O)C3C1C (stereo not drawn) [3-oxoursan (28-13)olide]
- mitoOX (mtOXPHOS transcripts; [6]): −1.205
- nucOX (nuOXPHOS transcripts; [6]): −1.228
- MTT [1, 6]: −1.871
- ΔΨm [2, 6]: −0.332
- GE-HTS (OXPHOS gene expression; [6]): −1.322
- Viability (C2C12 myotubes; [6]): 0.638
- cyt c (cytochrome c; [7]): 0.991
- ROS (reactive oxygen species; [6]): 1.010

SMILES: CC[N+]1(C)CCCC(OC(=O)C(O)(c2ccccc2)c2ccccc2)C1 (stereo not drawn) [pipenzolate]
- mitoOX (mtOXPHOS transcripts; [8]): −0.569
- nucOX (nuOXPHOS transcripts; [8]): −0.411
- MTT [1, 8]: 0.060
- ΔΨm [2, 8]: −0.205
- GE-HTS (OXPHOS gene expression; [8]): −0.495
- Viability (C2C12 myotubes; [8]): 0.001
- cyt c (cytochrome c): 0.192
- cyt c (cytochrome c; [9]): −0.954
- ROS (reactive oxygen species; [8]): 0.166

SMILES: C[C@]12CC[C@@H]3c4ccc(O)cc4CC[C@H]3[C@@H]1CC[C@@H]2OC(=O)CCC1CCCC1 [estradiol cypionate]
- mitoOX (mtOXPHOS transcripts; [8]): −0.418
- nucOX (nuOXPHOS transcripts; [8]): 0.072
- MTT [1, 8]: −2.428
- ΔΨm [2, 8]: −0.489
- GE-HTS (OXPHOS gene expression; [8]): −0.124
- Viability (C2C12 myotubes; [8]): 0.219
- cyt c (cytochrome c; [9]): 0.408
- ROS (reactive oxygen species; [8]): −0.010

SMILES: C=CC1=C(C)/C(=C/c2[nH]c(Cc3[nH]c(/C=C4\NC(=O)C(C)=C4C=C)c(C)c3CCC(=O)O)c(CCC(=O)O)c2C)NC1=O [bilirubin]
- mitoOX (composite Z-score) (mtOXPHOS transcripts): 0.427
- nucOX (composite Z-score) (nuOXPHOS transcripts): 0.250
- MTT (composite Z-score) [1]: −1.287
- ΔΨm (composite Z-score) [2]: −1.837
- GE-HTS (composite Z-score) (OXPHOS gene expression): 0.312
- Viability (composite Z-score) (C2C12 myotubes): −0.649
- cyt c (composite Z-score) (cytochrome c; Conc 20 μM): 1.004
- ROS (composite Z-score) (reactive oxygen species): 0.249

SMILES: O[C@H]1[C@H](O)[C@@H](O)C2OC[C@H]1O2 [anhydroglucose]
- mitoOX (mtOXPHOS transcripts; composite Z-score vs DMSO): −0.745
- nucOX (nuOXPHOS transcripts; composite Z-score vs DMSO): 0.322
- MTT ([1]; composite Z-score vs DMSO): 0.041
- ΔΨm ([2]; composite Z-score vs DMSO): −0.480
- GE-HTS (OXPHOS gene expression; composite Z-score vs DMSO): −0.046
- Viability (C2C12 myotubes; composite Z-score vs DMSO): 0.168
- cyt c (cytochrome c; [3]): 0.688
- ROS (reactive oxygen species; composite Z-score vs DMSO): 0.238

SMILES: CCOc1ccc(NC(C)=O)cc1 [phenacetin]
- mitoOX (mtOXPHOS transcripts; [8]): 0.564
- nucOX (nuOXPHOS transcripts; [8]): 0.833
- MTT [1, 8]: 0.760
- ΔΨm [2, 8]: −0.255
- GE-HTS (OXPHOS gene expression; [8]): 0.811
- Viability (C2C12 myotubes; [8]): 0.665
- cyt c (cytochrome c): −0.611
- cyt c (cytochrome c; [9]): 0.005
- ROS (reactive oxygen species; [8]): 1.491
